Assay results as given in PubChem BioAssay (NCI).
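Results reflect a 48-hour exposure of cells in 96-well plates to compound at five concentrations. The concentration for 50% growth inhibition is given as GI50. TGI denotes the concentration required for complete inhibition of growth.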

Columns and labels:
Test in all cases: DTP human tumour cell line panel, 48 h
K-562 leukemia = system: K-562 leukemia
SK-MEL-28 melanoma = system: SK-MEL-28 melanoma
HT29 colon = system: HT29 colon
NCI-H460 lung = system: NCI-H460 lung
CAKI-1 renal = system: CAKI-1 renal
DU-145 prostate = system: DU-145 prostate
SF-295 CNS = system: SF-295 CNS
CCRF-CEM leukemia = system: CCRF-CEM leukemia
MOLT-4 leukemia = system: MOLT-4 leukemia
SNB-75 CNS = system: SNB-75 CNS
OVCAR-4 ovarian = system: OVCAR-4 ovarian
BT-549 breast = system: BT-549 breast
U251 CNS = system: U251 CNS
M14 melanoma = system: M14 melanoma
HCC-2998 colon = system: HCC-2998 colon
NCI-H226 lung = system: NCI-H226 lung
SF-268 CNS = system: SF-268 CNS
SK-MEL-2 melanoma = system: SK-MEL-2 melanoma
SK-OV-3 ovarian = system: SK-OV-3 ovarian
SR leukemia = system: SR leukemia
SF-539 CNS = system: SF-539 CNS
HOP-92 NSCLC = system: HOP-92 NSCLC
786-0 renal = system: 786-0 renal
UACC-62 melanoma = system: UACC-62 melanoma
OVCAR-5 ovarian = system: OVCAR-5 ovarian
HCT-15 colon = system: HCT-15 colon
UO-31 renal = system: UO-31 renal
ACHN renal = system: ACHN renal
RXF 393 renal = system: RXF 393 renal
RPMI-8226 leukemia = system: RPMI-8226 leukemia
NCI/ADR-RES ovarian = system: NCI/ADR-RES ovarian
SW-620 colon = system: SW-620 colon
OVCAR-8 ovarian = system: OVCAR-8 ovarian
SNB-19 CNS = system: SNB-19 CNS
KM12 colon = system: KM12 colon
TK-10 renal = system: TK-10 renal
COLO 205 colon = system: COLO 205 colon
HCT-116 colon = system: HCT-116 colon
NCI-H23 lung = system: NCI-H23 lung
MDA-MB-435 = system: MDA-MB-435
SK-MEL-5 melanoma = system: SK-MEL-5 melanoma
IGROV1 ovarian = system: IGROV1 ovarian
NCI-H522 lung = system: NCI-H522 lung
OVCAR-3 ovarian = system: OVCAR-3 ovarian
PC-3 prostate = system: PC-3 prostate
A549 NSCLC = system: A549 NSCLC
MALME-3M melanoma = system: MALME-3M melanoma
HOP-62 NSCLC = system: HOP-62 NSCLC
HL-60(TB) leukemia = system: HL-60(TB) leukemia
HS 578T breast = system: HS 578T breast
UACC-257 melanoma = system: UACC-257 melanoma
MDA-MB-231 breast = system: MDA-MB-231 breast
T-47D breast = system: T-47D breast
A498 renal = system: A498 renal
MCF7 breast = system: MCF7 breast
SN12C renal = system: SN12C renal
LOX IMVI melanoma = system: LOX IMVI melanoma

## CC(=O)c1nc2ccccc2n1CCN1CCN(C)CC1
K-562 leukemia
  GI50: 3.95 µM
  TGI: > 100 µM
SK-MEL-28 melanoma
  GI50: 7.15 µM
  TGI: > 100 µM
HT29 colon
  GI50: 0.639 µM
  TGI: 10.4 µM
NCI-H460 lung
  GI50: 2.3 µM
  TGI: > 100 µM
CAKI-1 renal
  GI50: 34.1 µM
  TGI: > 100 µM
DU-145 prostate
  GI50: 2.79 µM
  TGI: 12.3 µM
SF-295 CNS
  GI50: 2.12 µM
  TGI: 15.4 µM
CCRF-CEM leukemia
  GI50: 3.29 µM
  TGI: > 100 µM
MOLT-4 leukemia
  GI50: 8.2 µM
  TGI: > 100 µM
SNB-75 CNS
  GI50: 0.0668 µM
  TGI: 1.57 µM
OVCAR-4 ovarian
  GI50: 15.7 µM
  TGI: > 100 µM
BT-549 breast
  GI50: 6.21 µM
  TGI: > 100 µM
U251 CNS
  GI50: 3.82 µM
  TGI: > 100 µM
M14 melanoma
  GI50: 2.66 µM
  TGI: > 41.6 µM
HCC-2998 colon
  GI50: 3.63 µM
  TGI: 26.9 µM
NCI-H226 lung
  GI50: 31.5 µM
  TGI: > 100 µM
SF-268 CNS
  GI50: 4.63 µM
  TGI: > 100 µM
SK-MEL-2 melanoma
  GI50: 3.28 µM
  TGI: 47.6 µM
SK-OV-3 ovarian
  GI50: 3.61 µM
  TGI: 59.5 µM
SR leukemia
  GI50: 1.32 µM
  TGI: > 100 µM
SF-539 CNS
  GI50: 2.28 µM
  TGI: > 50.4 µM
HOP-92 NSCLC
  GI50: 0.416 µM
786-0 renal
  GI50: 17.6 µM
  TGI: > 100 µM
UACC-62 melanoma
  GI50: 4.11 µM
  TGI: > 100 µM
OVCAR-5 ovarian
  GI50: 3.5 µM
  TGI: > 100 µM
HCT-15 colon
  GI50: 25 µM
  TGI: > 100 µM
UO-31 renal
  GI50: 9.35 µM
  TGI: > 100 µM
ACHN renal
  GI50: 23.4 µM
  TGI: > 100 µM
RXF 393 renal
  GI50: 1.59 µM
  TGI: 18.6 µM
RPMI-8226 leukemia
  GI50: 1.9 µM
  TGI: > 100 µM
NCI/ADR-RES ovarian
  GI50: 61.1 µM
  TGI: > 100 µM
SW-620 colon
  GI50: 2.8 µM
  TGI: > 100 µM
OVCAR-8 ovarian
  GI50: 3.76 µM
  TGI: > 100 µM
SNB-19 CNS
  GI50: 17.3 µM
  TGI: > 100 µM
KM12 colon
  GI50: 3.06 µM
  TGI: > 100 µM
TK-10 renal
  GI50: 11.5 µM
  TGI: 84.3 µM
COLO 205 colon
  GI50: 1.89 µM
  TGI: 6.39 µM
HCT-116 colon
  GI50: 1.2 µM
  TGI: > 100 µM
NCI-H23 lung
  GI50: 6.01 µM
  TGI: > 100 µM
MDA-MB-435
  GI50: 0.373 µM
  TGI: 1.69 µM
SK-MEL-5 melanoma
  GI50: 3.13 µM
  TGI: > 100 µM
IGROV1 ovarian
  GI50: 4.83 µM
  TGI: > 100 µM
NCI-H522 lung
  GI50: 1.8 µM
  TGI: 6.11 µM
OVCAR-3 ovarian
  GI50: 2.6 µM
  TGI: > 26 µM
PC-3 prostate
  GI50: 2.41 µM
  TGI: > 100 µM
A549 NSCLC
  GI50: 2.63 µM
  TGI: > 100 µM
MALME-3M melanoma
  GI50: 2.38 µM
  TGI: > 100 µM
HOP-62 NSCLC
  GI50: 3.57 µM
  TGI: > 100 µM
HL-60(TB) leukemia
  GI50: 2.62 µM
  TGI: > 26.2 µM
HS 578T breast
  GI50: 2.15 µM
  TGI: 25.9 µM
UACC-257 melanoma
  GI50: 5.47 µM
  TGI: > 100 µM
MDA-MB-231 breast
  GI50: 2.98 µM
  TGI: > 95.8 µM
T-47D breast
  GI50: 2.97 µM
  TGI: > 100 µM
A498 renal
  GI50: 3.46 µM
  TGI: > 52.7 µM
MCF7 breast
  GI50: 1.16 µM
  TGI: > 100 µM
SN12C renal
  GI50: 4.21 µM
  TGI: > 100 µM
LOX IMVI melanoma
  GI50: 2.6 µM
  TGI: > 100 µM
